Data taken from ChEMBL document CHEMBL1156733, “Structure-activity relationship studies on a series of piperazinebenzylalcohols and their ketone and amine analogs as melanocortin-4 receptor ligands” (Bioorg Med Chem Lett, 2008).
pIC50, pKi: −log10 of the molar value.

Tests used:
[1] = biological target: T1, Melanocortin receptor 4 (Homo sapiens, UniProt P32245)
[2] = biological target: T1, Melanocortin receptor 4; test: Antagonist activity at human MC4 receptor expressed in cells assessed as inhibition of alpha-MSH-stimulated cAMP production; format: functional, cell-based
[3] = Lipophilicity, log D of the compound; format: physicochemical; conditions: octanol/water
[4] = biological target: Melanocortin receptor 5 (Homo sapiens, UniProt P33032); test: Binding affinity to MC5 receptor
[5] = Metabolic stability assessed as intrinsic clearance in human liver microsomes; format: ADME, Microsome
[6] = system: Melanocortin receptor 1 (Homo sapiens); test: Inhibition of human MC1 receptor at 10 uM
[7] = biological target: Melanocortin receptor 3 (Homo sapiens, UniProt P41968); test: Binding affinity to MC3 receptor
[8] = species: Homo sapiens; test: Selectivity for human MC4 receptor over human MC4 receptor Asp122Ala mutant
[9] = biological target: Melanocortin receptor 4 (Homo sapiens, UniProt P32245, D122A); test: Binding affinity to human MC4 receptor Asp122Ala mutant
[10] = Volume of distribution in rat at 5 mg/kg, iv; format: ADME, organism-based; set-up: dose 5 mg/kg, route intravenous; conditions: in vivo
[11] = Plasma clearance in rat at 5 mg/kg, iv; format: ADME, organism-based; set-up: dose 5 mg/kg, route intravenous
[12] = Ratio of drug level in brain to plasma in rat at 5 mg/kg, iv after 1 hr; format: ADME, organism-based; set-up: dose 5 mg/kg, route intravenous
[13] = Half life in rat at 5 mg/kg, iv; format: ADME, organism-based; set-up: dose 5 mg/kg, route intravenous; conditions: in vivo
[14] = system: Brain; test: Drug level in rat brain rat at 5 mg/kg, iv; format: ADME, organism-based; set-up: dose 5 mg/kg, route intravenous; conditions: in vivo
[15] = Oral bioavailability in rat at 10 mg/kg; format: ADME, organism-based; conditions: in vivo

Melanocortin receptor 5, sequence (P33032 whole entry): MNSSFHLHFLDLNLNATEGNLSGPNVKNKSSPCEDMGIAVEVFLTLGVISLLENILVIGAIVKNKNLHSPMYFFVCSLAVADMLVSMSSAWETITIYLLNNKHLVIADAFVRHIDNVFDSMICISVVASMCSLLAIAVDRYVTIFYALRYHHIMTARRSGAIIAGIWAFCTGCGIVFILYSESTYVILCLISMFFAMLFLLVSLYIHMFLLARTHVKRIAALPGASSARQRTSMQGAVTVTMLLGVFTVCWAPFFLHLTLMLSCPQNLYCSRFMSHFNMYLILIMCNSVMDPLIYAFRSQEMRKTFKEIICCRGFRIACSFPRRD
T1 sequence (P32245 whole entry): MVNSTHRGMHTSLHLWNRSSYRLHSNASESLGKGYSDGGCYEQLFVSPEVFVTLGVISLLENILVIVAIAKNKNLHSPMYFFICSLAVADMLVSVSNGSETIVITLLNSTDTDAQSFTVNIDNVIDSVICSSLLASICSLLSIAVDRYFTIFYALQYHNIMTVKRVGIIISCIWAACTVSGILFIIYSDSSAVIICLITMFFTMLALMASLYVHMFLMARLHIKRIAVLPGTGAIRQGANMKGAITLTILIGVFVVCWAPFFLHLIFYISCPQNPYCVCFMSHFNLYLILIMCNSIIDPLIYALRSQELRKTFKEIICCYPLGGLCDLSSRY
Melanocortin receptor 3, sequence (P41968 whole entry): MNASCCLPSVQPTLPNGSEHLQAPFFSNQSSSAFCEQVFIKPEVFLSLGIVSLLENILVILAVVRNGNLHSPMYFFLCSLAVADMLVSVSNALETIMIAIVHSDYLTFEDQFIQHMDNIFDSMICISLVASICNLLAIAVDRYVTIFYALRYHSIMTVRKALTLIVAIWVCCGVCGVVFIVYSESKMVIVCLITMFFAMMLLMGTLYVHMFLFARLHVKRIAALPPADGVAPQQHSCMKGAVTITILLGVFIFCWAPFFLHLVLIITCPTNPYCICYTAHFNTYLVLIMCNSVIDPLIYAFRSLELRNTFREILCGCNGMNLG
Melanocortin receptor 4 (Homo sapiens, UniProt P32245, D122A), sequence (P32245 whole entry D122A): as the sequence (P32245 whole entry) above, with D122A counted along it

Row | Compound | pKi [1] | further results
1 | CC(C)CC(O)c1ccccc1N1CCN(C(=O)[C@@H](Cc2ccc(Cl)cc2Cl)N(CC(C)C)CC(C)C)CC1 (stereo partly specified) | < 5.00 | –
2 | CNC(C)(C)C(=O)N[C@H](Cc1ccc(Cl)cc1Cl)C(=O)N1CCN(c2ccccc2C(=O)CC(C)C)CC1 | 7.04 | –
3 | CCOC(=O)[C@H]1CCCC[C@@H]1N1CCN(C(=O)[C@@H](Cc2ccc(Cl)cc2Cl)NC(=O)CCN)CC1 | 8.20 | –
4 | CC(C)CC(O)c1ccccc1N1CCN(C(=O)[C@H](N)Cc2ccc(Cl)cc2Cl)CC1 (stereo partly specified) | 6.55 | –
5 | COc1ccccc1CC(O)c1ccccc1N1CCN(C(=O)[C@@H](Cc2ccc(Cl)cc2Cl)NC(=O)CCN)CC1 (stereo partly specified) | 7.18 | –
6 | CC(C)CC(O)c1ccccc1N1CCN(C(=O)[C@@H](Cc2ccc(Cl)cc2Cl)NC(=O)C(C)(C)N)CC1 (stereo partly specified) | 7.34 | –
7 | CSCCCN[C@H](Cc1ccc(Cl)cc1Cl)C(=O)N1CCN(c2ccccc2C(=O)CC(C)C)CC1 | 6.64 | –
8 | COc1cccc(CC(O)c2ccccc2N2CCN(C(=O)[C@@H](Cc3ccc(Cl)cc3Cl)NC(=O)CCN)CC2)c1 (stereo partly specified) | 7.18 | –
9 | CC(C)C[C@H](O)c1ccccc1N1CCN(C(=O)[C@@H](Cc2ccc(Cl)cc2Cl)NC(=O)CN)CC1 | 7.55 | –
10 | CC(C)CC(=O)c1ccccc1N1CCN(C(=O)[C@@H](Cc2ccc(Cl)cc2Cl)NC(=O)CCN)CC1 | 7.62 | pIC50 [2]: 6.19; logD [3]: 2.4; pKi [4]: 6.48; CLint scaled [5]: 18.4 mL/min/kg; inhibition [6]: 42%; pKi [7]: 5.64
11 | CC(C)CC(=O)c1ccccc1N1CCN(C(=O)[C@@H](Cc2ccc(Cl)cc2Cl)NCC2CCOC2)CC1 (stereo partly specified) | 6.82 | –
12 | CCC(O)(CC)c1ccccc1N1CCN(C(=O)[C@@H](Cc2ccc(Cl)cc2Cl)NC(=O)[C@H](C)N)CC1 | 7.74 | –
13 | CC(C)CC(=O)c1ccccc1N1CCN(C(=O)[C@@H](Cc2ccc(Cl)cc2Cl)NC(=O)CN)CC1 | 7.48 | –
14 | CCC(O)(CC)c1ccccc1N1CCN(C(=O)[C@@H](Cc2ccc(Cl)cc2Cl)NC(=O)OC(C)(C)C)CC1 | 6.41 | –
15 | CCC(O)(CC)c1ccccc1N1CCN(C(=O)[C@@H](Cc2ccc(Cl)cc2Cl)NC(=O)CN(C)C)CC1 | 8.03 | pIC50 [2]: 6.40; pKi [4]: 6.02; inhibition [6]: 34%; pKi [7]: 5.51
16 | CCCC(O)c1ccccc1N1CCN(C(=O)[C@@H](Cc2ccc(Cl)cc2Cl)NC(=O)CCN)CC1 (stereo partly specified) | 7.59 | –
17 | CC(C)CC(N)c1ccccc1N1CCN(C(=O)[C@@H](Cc2ccc(Cl)cc2Cl)NC(C)C)CC1 (stereo partly specified) | 7.28 | –

Row | Compound | pKi [1] | further results
18 | CC(C)CC(O)c1ccccc1N1CCN(C(=O)[C@@H](Cc2ccc(Cl)cc2Cl)NC(=O)CN)CC1 (stereo partly specified) | 7.89 | –
19 | NCCC(=O)N[C@H](Cc1ccc(Cl)cc1Cl)C(=O)N1CCN(c2ccccc2CO)CC1 | 6.06 | –
20 | CC(C)CC(N)c1ccccc1N1CCN(C(=O)[C@@H](Cc2ccc(Cl)cc2Cl)NCC2CCOC2)CC1 (stereo partly specified) | 7.82 | –
21 | CSCCCN[C@H](Cc1ccc(Cl)cc1Cl)C(=O)N1CCN(c2ccccc2C(O)CC(C)C)CC1 (stereo partly specified) | 6.48 | –
22 | COc1ccc(CCC(O)c2ccccc2N2CCN(C(=O)[C@@H](Cc3ccc(Cl)cc3Cl)NC(=O)CCN)CC2)cc1 (stereo partly specified) | 7.64 | –
23 | CC(C)CC(N)c1ccccc1N1CCN(C(=O)[C@@H](Cc2ccc(Cl)cc2Cl)N(Cc2ccccn2)Cc2ccccn2)CC1 (stereo partly specified) | 8.70 | –
24 | CNCC(=O)N[C@H](Cc1ccc(Cl)cc1Cl)C(=O)N1CCN(c2ccccc2C(N)CC(C)C)CC1 (stereo partly specified) | 8.77 | fold change (FC) [8]: 58; pKi [9]: 7.00
25 | NCCC(=O)N[C@H](Cc1ccc(Cl)cc1Cl)C(=O)N1CCN(c2ccccc2C(O)CCc2ccccc2)CC1 (stereo partly specified) | 7.49 | –
26 | CSCCCN[C@H](Cc1ccc(Cl)cc1Cl)C(=O)N1CCN(c2ccccc2C(N)CC(C)C)CC1 (stereo partly specified) | 7.68 | –
27 | CCCCCN(CCCCC)[C@H](Cc1ccc(Cl)cc1Cl)C(=O)N1CCN(c2ccccc2C(O)CC(C)C)CC1 (stereo partly specified) | 5.49 | –
28 | CCC(O)(CC)c1ccccc1N1CCN(C(=O)[C@@H](Cc2ccc(Cl)cc2Cl)NC(=O)CCN)CC1 | 7.96 | –
29 | CC(C)CC(N)c1ccccc1N1CCN(C(=O)[C@@H](Cc2ccc(Cl)cc2Cl)N(CC2CC2)CC2CC2)CC1 (stereo partly specified) | 6.46 | –
30 | CCCC(C)(O)c1ccccc1N1CCN(C(=O)[C@@H](Cc2ccc(Cl)cc2Cl)NC(=O)CCN)CC1 (stereo partly specified) | 7.96 | –
31 | CC(C)CC(N)c1ccccc1N1CCN(C(=O)[C@@H](Cc2ccc(Cl)cc2Cl)NC(=O)CCN)CC1 (stereo partly specified) | 8.49 | Vd [10]: 41.5 L/kg; clearance [11]: 68 mL/min/kg; pIC50 [2]: 6.60; logD [3]: 0.15; Kp at 1 h [12]: 1.8; half-life [13]: 7.1 h; pKi [4]: 6.27; CLint scaled [5]: 3.6 mL/min/kg; Drug uptake [14]: 245 ng/g; bioavailability [15]: 2.1%; pKi [7]: 6.06
32 | CC(C)C[C@@H](O)c1ccccc1N1CCN(C(=O)[C@@H](Cc2ccc(Cl)cc2Cl)NC(=O)CN)CC1 | 8.05 | –
33 | CC(C)CC(O)c1ccccc1N1CCN(C(=O)[C@@H](Cc2ccc(Cl)cc2Cl)NC(=O)CN(C)C)CC1 (stereo partly specified) | 8.02 | pIC50 [2]: 6.60; pKi [4]: 5.89; inhibition [6]: 36%; pKi [7]: 5.51
34 | CC(C)CC(N)c1ccccc1N1CCN(C(=O)[C@@H](Cc2ccc(Cl)cc2Cl)NC(=O)[C@H](C)N)CC1 (stereo partly specified) | 8.38 | –
